# Laboratory results as given in US20130202614A1, “AUTOTAXIN PATHWAY MODULATION AND USES THEREOF” (B.S.R.C. "ALEXANDER FLEMING", priority 2010, published 2013).
# Experiments:
# [1] = biological target: T1, ATX (Mus musculus, UniProt Q9R1E6); assay: ATX activity assay (FS-3 cleavage) in plasma of saline- and BLM-treated mice; assay type: in vivo; conditions: both in saline- and BLM-treated mice
# T1 construct: from tissue; host or cells: BAL fluid of WT mice exposed to aerosolised LPS
# Description: […] […] Reactions were incubated at 37° C. in a Tecan Infinite 200 microplate reader (Tecan Trading AG, Switzerland) set to make fluorescence measurements every 5 min for 1 hour. Autotaxin activity was quantitated by measuring the rate of increase in fluorescence at 528 nm with excitation at 485 nm.
# [2] = biological target: T1, ATX; assay: ATX activity assay (FS-3 cleavage) in BAL fluids, LPS model; assay type: in vivo; conditions: intratracheal prior to LPS; 24 hr
# Description: Autotaxin activity in BALF of mice was determined using the cleavage of the ATX-specific fluorogenic substrate FS-3 (Echelon Biosciences, UT, USA). Assays were conducted in a final volume of 100 μl comprising 20 μl 5× assay buffer (700 mM NaCl, 25 mM KCl, 5 mM MgCl2 and 250 mM Tris, pH 8.0), 20 μl of FS-3 (final concentration 2.5 μM) and 60 μl of BALF (diluted 1:2 in 1×PBS). Reactions were incubated at 37° C. in a Tecan Infinite 200 microplate reader (Tecan Trading AG, Switzerland) set to make fluorescence measurements every 5 min for 1 hour. Autotaxin activity was quantitated by measuring the rate of increase in fluorescence at 528 nm with excitation at 485 nm.
# [3] = system: ATX; assay: ATX ELISA in plasma and BAL fluids of control and BLM treated mice; assay type: in vivo, mouse; conditions: saline treated, naive mice; same trend in BLM-treated mice
# Description: To detect ATX in biological fluids, a direct ELISA assay was developed using the commercially available anti-phospholipase D polyclonal antibody (Cat. No. 10005375, Cayman chemical, USA). The bottom of a NUNC-IMMUNO 96 MicroWell Elisa plate was coated overnight with 100 μl of 1:200 diluted serum in 0.05 M carbonate/bicarbonate coating buffer, pH 9.5 (Cat. No. S7795/S7277, Sigma, Saint Louis, […]., USA), washed three times with 0.05% Tween-20 (Cat. No. P1379, Sigma, USA) in TBS and blocked with 0.1% Bovine Serum Albumin (Cat. No. A7888, Sigma, USA) in 0.05% TBST for 1 h at RT. For each ELISA assay, 100 μl of two-fold serial dilutions of recombinant ATX protein ranging from 0.1 to 1.6 μg/ml were plated as standard curve and treated as all samples.
# The plate was then incubated with 0.5 μg/ml detection antibody for 1 h and washed three times with 0.05% TBST. Autotaxin antigen was then detected with an anti-rabbit HRP-labeled secondary antibody (Cat. No. 4010-05, SouthernBiotech, USA) that was developed with TMB substrate (Cat. No. […], Sigma, USA). Readings were obtained at 450 nm. All samples and standards were assayed in triplicates.
# [4] = system: WT mice; assay: LPS-induced lung inflammation (aerosolised LPS) in mice; assay type: in vivo, mouse
# Description: 6-8 week old littermate mice were divided into an experimental group that received aerosolised LPS (from Pseudomonas aeruginosa, 10 mg dissolved in 3 ml Normal Saline) and a control group that received Normal Saline instead. […] The LPS solution was administered by a custom-made nebuliser flowing at 4 l/min oxygen for 20-25 min into an airtight chamber containing 5-7 mice. All analyses were performed 24 h later.
# Upon euthanasia, blood was drawn from the vena cava and was added to 50 mM EDTA for plasma preparations. Lungs were lavaged with an aliquot of 1 ml normal saline followed by 2 ml of saline (Bronchoalveolar Lavage Fluid. BALF). BALF aliquots were centrifuged; the cell pellets were combined and used for total cell counts with Trypan Blue while supernatants were snap-frozen. Lungs were then perfused with 10 ml of PBS through the spontaneous beating right ventricle and the left lung was snap-frozen for future analysis while the right lung was fixed in 10% neutral buffered formalin. Tissues were embedded in paraffin, and 5-μm-thick sections were cut at the median transverse level of the lungs. Sections were mounted on glass slides and stained with H&E.
# Total protein concentration in BALFs was measured using the Bradford protein assay (Biorad, Hercules, Calif.) according to manufacturer's recommendations. OD readings of samples were converted to μg/ml using values obtained from a standard curve generated with serial dilutions of bovine serum albumin (50-500 μg/ml).
# [5] = system: EAE mice; assay: Experimental autoimmune encephalomyelitis (EAE), animal model of MS; assay type: in vivo, mouse; conditions: injected intraperitoneally twice a week at 10 mg/Kg
# Description: Active EAE in wild-type C57Bl/6 mice was induced as described. Briefly, the mice were challenged in the […] with an emulsion containing 50 μg of MOG p35-55 peptide ( ) supplemented with 8 mg/ml heat-inactivated Mycobacterium tuberculosis (H37Ra strain; Difco Laboratories) in CFA (Difco Laboratories) on day 0 in the tail base. Booster immunization with an identical emulsion was given on both sides. Bordetella pertussis toxin (PT) (List Biologicals) were administered i.p. (200 ng/mouse) 48 h after the immunization. For induction of EAE in MOGi-cre/Atx^n/n mice, the doses for MOG35-55 peptide and PT were the same as for wild type mice Atx^n/n. From mice injected at 8 to 12 weeks of age, representative animals were fixed for immunohistochemistry (4% paraformaldehyde in phosphate-buffered saline) and then 7-μm thick frozen sections were used for immunohistochemistry, or fixed in 10% buffered formalin overnight at 4° C. for histopathology. […]
# Mice were observed daily for clinical signs of EAE. The severity of EAE was evaluated and scored as follows: 0, no clinical disease; 1, tail paralysis; 2, hindlimb weakness and abnormal gait (incomplete paralysis of one or two hindlimbs); 3, paraplegia (complete paralysis of one or two hindlimbs); 4, quadriplegia; 5, moribund or dead animals.
# [6] = system: WT mice (C57/BL6); assay: BLM-induced pulmonary fibrosis in mice; assay type: in vivo, mouse
# Description: 8-12 week old littermate mice were divided into an experimental group that received intratracheal Bleomycin (BLM, 0.08 U) and a control group that received Normal Saline instead. Mice were sacrificed at 7 and 14 days post BLM instillation for pathology evaluation.
# Age and sex-matched 6-8 week old WT (C57/Bl6) mice were divided in four study groups according to the treatment regime.
# Group A (n=5) received i.p injections of Veh (water) twice per week for two weeks starting at day −1 and instilled with Saline intratracheally at day 0.
# Group B (n=3) received i.p injections of BRP-LPA (10 mg/Kg) twice per week for two weeks starting at day −1 and instilled with Saline intratracheally at day 0.
# Group C (n=9) received i.p injections of Veh twice per week for two weeks starting at day −1 and instilled with BLM (0.08 U) intratracheally at day 0.
# Group D (n=8) received i.p injections of BRP-LPA (10 mg/Kg) twice per week for two weeks starting at day −1 and instilled with BLM (0.08 U) intratracheally at day 0. A schematic representation of the time course of the protocol is depicted below.
# All mice were sacrificed at day 14 after BLM instillation for disease evaluation. […] Lungs were lavaged 3 times with 1 ml aliquots of saline (BAL) followed by perfusion through the right ventricle of the heart with 10 ml of PBS. BAL fluid was centrifuged and cell pellets were used for total cell counts with Trypan Blue while the supernatant was snap frozen.
# Right lung was instilled with 1 ml of buffered formalin, dissected and fixed O/N in formalin. Left lung was snap frozen and used for soluble collagen measurements using the Sircol assay.
# Schematic representation of BRP-LPA administration protocol. BRP-LPA (or water) was administered intraperioneally in mice starting one day before BLM (or Sal) instillation and every three other days until the end of the study (14 days). Pulmonary fibrosis was induced with a single i.t. instillation of BLM at day 0.
# Soluble collagen measurements were performed using the Sircol reagent according to manufacture's recommendations.
# [7] = system: CIA in DBA/1 mice; assay: Experimental arthritis (collagen induced arthritis, CIA) in mice; assay type: in vivo, mouse; conditions: injected intraperitoneally twice a week
smiles,measurement,setting,value
"CCCCCCCCCCCCCCCC(=O)OC[C@@H](O)CC(Br)P(=O)(O)O (stereo partly drawn) [BrP-LPA, 1-Bromo-3(S)-hydroxy-4-(palmitoyloxy)butyl-phosphonate]",ATX activity in plasma,[1],reduced ATX activity
same,ATX enzymatic activity in BAL fluids,[2],failed to detect lower levels of enzymatic activity
same,levels of ATX in plasma and in BAL fluids,[3],non statistical increase
same,BAL fluid total cell counts (recruitment of neutrophils in the lungs),[4]; BrP-LPA 100 μg/mouse intratracheally prior to aerosolized LPS (10 mg),1.9×10^6±0.16
same,BAL protein content,"[4]; LPS-exposed mice, vs vehicle-treated mice",significantly elevated
same,"LPS-induced lung inflammation and alveolar edema (histopathology, BALF total cell counts)","[4]; intratracheal prior to LPS exposure, 24 hr",significant increases
same,total protein concentration in BAL fluids,[4]; saline treated mice,increased total protein concentration
same,disease development (clinical score),[5],attenuated disease development
same,"fibrosis development (histopathology, H/E lung sections)","[6]; 10 mg/Kg i.p. biweekly, 14 days after BLM, vs vehicle",development of focal areas of fibrosis with a patchy distribution in lung parenchyma
same,soluble collagen accumulation,"[6]; 10 mg/Kg i.p., 14 days after BLM, vs Veh-treated mice",significant reduction of collagen accumulation
same,BAL total cell counts,"[6]; 14 days post BLM administration, Brp- vs Veh-treated",did not differ
same,total protein content in BAL fluids,[6]; vehicle- vs BrP-treated mice after BLM,did not differ
same,disease development (clinical and histopathological analysis),[7],attenuated disease development
